Assay results: patent US8067615B2, “Sulphonylpyrroles” (4SC AG, priority 2004, dated 2011)

Legend:
[1] = system: HeLa cervical carcinoma cells; assay: Cellular cytotoxicity assay (Alamar Blue / Resazurin); type: cell-based; conditions: Homo sapiens, 48 hours incubation
Description: The anti-proliferative activity of the histone deacetylase inhibitory compounds as described herein, was evaluated with the HeLa cervical carcinoma cell line (ATCC CCL2) using the Alamar Blue (Resazurin) cell viability assay (O'Brien et al. Eur J Biochem 267, 5421-5426, 2000). Resazurin is reduced to the fluorescent resorufin by cellular dehydrogenase activity, correlating with viable, proliferating cells. Test compounds were dissolved as 10 mM solutions in dimethylsulfoxide (DMSO) and subsequently diluted in semi-logarithmic steps. HeLa cells were seeded into 96 well flat bottom plates at a density of 3000 cells per well in a volume of […] per well. 24 hours after seeding 1 μl each of the compound dilutions were added into each well of the 96 Well plate. Each compound dilution was tested as quadruplicates. Wells containing untreated control cells were filled with 200 μl DMEM medium containing 0.5% v:v DMSO. The cells were then incubated with the substances for 48 hours at 37° C. in a humidified atmosphere containing 5% carbon dioxide. To determine the viability of the cells, 20 μl of an Resazurin solution (Sigma; 90 mg/l) were added. After 4 hours incubation at 37° C. the fluorescence was measured at an […] of 544 nm and an emission of 590 nm. For the calculation of the cell viability the emission value from untreated cells was set as 100% viability and the emission rates of treated cells were set in relation to the values of untreated cells. Viabilities were expressed as % values. The corresponding IC50 values of the compounds for cytotoxic activity are determined from the concentration-effect curves by means of non-linear regression.

[2] = system: histone H3K23 hyperacetylation in HeLa cervical carcinoma cells; assay: Cellular histone H3 hyperacetylation assay; type: cell-based; conditions: Homo sapiens, 24 h with compound, read-out: Induction of histone H3K23 hyperacetylation EC50
Description: To assess the cellular efficacy of an histone deacetylase inhibitor in vitro, an assay was set up in black clear-bottom 96-well plates and optimized for use on the Cellomics “ArrayScan II” platform for a quantitative calculation of […] acetylation. The protocol uses a polyclonal rabbit antibody, specifically binding to acetylated lysine 23 of human histone H3 on fixed cells with an Alexa Fluor 488 labeled goat anti rabbit-IgG used for counterstaining (Braunger et al. AACR annual conference 2003, Abstract 4556). 5×10^3 HeLa cervical carcinoma cells/well (ATCC CCL-2) in 200 μl Dulbecco's modified Eagle's medium (DMEM) containing 10% fetal calf serum were seeded at day 1 in Packard view plates and incubated for 24 h under standard cell culture conditions. On day 2, 2 μl test compound (100× final concentration) was added and incubation continued for further 24 h. On day 3, the culture medium was discarded and attached cells fixed for 15 min at room temperature by addition of 100 μl fixation buffer (3.7% v:v formaldehyde in phosphate buffered saline/PBS). After discarding the fixation buffer and one wash with PBS, cells were permeabilized at room temperature by addition of 100 μl/well permeabilization buffer (30.8 mM NaCl, 0.54 mM Na2HPO4, 0.31 mM KH2PO4, 5% v:v Triton X-100) for 15 min at room temperature. After discarding the permeabilization buffer and addition of 100 μl/well blocking solution (PBS with 0.05% v:v Tween 20 and 5% w:v milk powder) for 30 min at room temperature, the 1st antibody (anti-K23 histone H3 antibody, Cell Signaling No. 9674) in blocking solution (50 μl/well) was added. After incubation for 1 h at 37° C., the wells were washed 5 times for 5 min at room temperature with wash buffer (PBS with 0.05% v:v Tween 20) before addition of the 2nd antibody (goat-anti-rabbit Alexa Fluor 488; MoBiTec No. A-11008) in blocking solution (50 μl/well). After further incubation for 30 min at 37° C., wells were washed 5 times for 5 min at RT with 100 μl wash buffer at room temperature. Finally, 100 μl/well PBS were added and image analysis performed on the Cellomics “ArrayScan II” platform. For calculation of EC50 values, the nuclear fluorescence in cells treated with and without a reference HDAC inhibitor like SAHA or NVP-LBH-589 were taken as a positive and negative control, respectively. For EC50 determination, the percentage of positive cells was determined and EC50 calculation done from concentration-effect curves by means of non-linear regression.

| EC50 [2] | melting point | Compound | IC50 [1] |
| --- | --- | --- | --- |
| 2.15 to 51.3 µM | – | Cc1ccc(S(=O)(=O)n2ccc(C=CC(=O)NO)c2)cc1 [Compound 1, (E)-N-Hydroxy-3-[1-(toluene-4-sulfonyl)-1-H-pyrrol-3-yl]-acrylamide] | 0.8 to 21.6 µM |
| 2.15 to 51.3 µM | – | O=C(/C=C/c1ccn(S(=O)(=O)Cc2ccccc2)c1)NO [Compound 2, N-Hydroxy-3-(1-phenylmethanesulfonyl-1H-1-pyrrol-3-yl)-acrylamide] | 0.8 to 21.6 µM |
| 2.15 to 51.3 µM | – | O=C(/C=C/c1ccn(S(=O)(=O)c2ccc(-c3ccccc3)cc2)c1)NO [Compound 3, (E)-3-[1-(Biphenyl-4-sulfonyl)-1H-pyrrol-3-yl]-N-hydroxy-acrylamide] | 0.8 to 21.6 µM |
| 2.15 to 51.3 µM | – | Nc1ccccc1NC(=O)C=Cc1ccn(S(=O)(=O)c2ccc(-c3ccccc3)cc2)c1 [Compound 7, (E)-N-(2-Amino-phenyl)-3-[1-(biphenyl-4-sulfonyl)-1H-1-pyrrol-3-yl]-acrylamide] | 0.8 to 21.6 µM |
| 2.15 to 51.3 µM | – | CN(CCc1cc2ccccc2[nH]1)Cc1ccc(S(=O)(=O)n2ccc(/C=C/C(=O)NO)c2)cc1 [Compound 9, (E)-N-Hydroxy-3-(1-[4-(([2-(1H-indol-2-yl)-ethyl]-methyl-amino)-methyl)-benzenesulfonyl]-1H-pyrrol-3-yl)-acrylamide] | 0.07 to 5 µM |
| – | 219.3 to 221.4 °C | O=C(/C=C/c1ccn(S(=O)(=O)c2ccc(-c3ccncc3)cc2)c1)NO [Compound 18, (E)-N-Hydroxy-3-[1-(4-pyridin-4-yl-benzenesulfonyl)-1H-pyrrol-3-yl]-acrylamide] | 0.07 to 5 µM |
| – | 203.8 to 211.9 °C | O=C(/C=C/c1ccn(S(=O)(=O)c2ccc(-c3cn[nH]c3)cc2)c1)NO [Compound 19, (E)-N-Hydroxy-3-{1-[4-(1H-pyrazol-4-yl)-benzenesulfonyl]-1H-pyrrol-3-yl}-acrylamide] | 0.07 to 5 µM |
| – | 244.2 to 246.5 °C | Nc1ccccc1NC(=O)/C=C/c1ccn(S(=O)(=O)c2ccc(-c3ccncc3)cc2)c1 [Compound 20, (E)-N-(2-Amino-phenyl)-3-[1-(4-pyridin-4-yl-benzenesulfonyl)-1H-pyrrol-3-yl]-acrylamide] | 0.07 to 5 µM |
| – | 199.7 to 202.3 °C | Nc1ccccc1NC(=O)/C=C/c1ccn(S(=O)(=O)c2ccc(-c3cccnc3)cc2)c1 [Compound 21, (E)-N-(2-Amino-phenyl)-3-[1-(4-pyridin-3-yl-benzenesulfonyl)-1H-pyrrol-3-yl]-acrylamide] | 0.07 to 5 µM |
| – | 232.3 to 240.9 °C | Nc1ccccc1NC(=O)C=Cc1ccn(S(=O)(=O)c2ccc(-c3cn[nH]c3)cc2)c1 [Compound 22, (E)-N-(2-Amino-phenyl)-3-{1-[4-(1H-1-pyrazol-4-yl)-benzenesulfonyl]-1H-pyrrol-3-yl}-acrylamide] | 0.07 to 5 µM |
| – | 114 to 159.4 °C | O=C(/C=C/c1ccn(S(=O)(=O)c2cccc(-c3ccccc3)c2)c1)NO [Compound 23, (E)-3-[1-(Biphenyl-3-sulfonyl)-1H-pyrrol-3-yl]-N-hydroxy-acrylamide] | 0.07 to 5 µM |
| – | 160.7 to 166.6 °C | O=C(/C=C/c1ccn(S(=O)(=O)c2ccc(-n3cccn3)cc2)c1)NO [Compound 25, (E)-N-Hydroxy-3-[1-(4-pyrazol-1-yl-benzenesulfonyl)-1H-pyrrol-3-yl]-acrylamide] | 0.07 to 5 µM |
| 2.15 to 51.3 µM | 168 to 170 °C | O=C(/C=C/c1ccn(S(=O)(=O)c2ccc(CN3CCOCC3)cc2)c1)NO [Compound 27, (E)-N-Hydroxy-3-[1-(4-morpholin-4-ylmethyl-benzenesulfonyl)-1H-pyrrol-3-yl]acrylamide] | 0.07 to 5 µM |

The next lines start with the compound.

| Compound | EC50 [2] | melting point | IC50 [1] |
| --- | --- | --- | --- |
| CN(C)c1ccc(S(=O)(=O)n2ccc(C=CC(=O)NO)c2)cc1 [Compound 4, (E)-3-[1-(4-Dimethylamino-benzenesulfonyl)-1H-1-pyrrol-3-yl]-N-hydroxy-acrylamide] | 2.15 to 51.3 µM | – | 0.8 to 21.6 µM |
| CN(C)c1ccc(S(=O)(=O)n2ccc(/C=C/C(=O)Nc3ccccc3N)c2)cc1 [Compound 8, (E)-N-(2-Amino-phenyl)-3-[1-(4-dimethylamino-benzenesulfonyl)-1H-pyrrol-3-yl]-acrylamide] | 2.15 to 51.3 µM | – | 0.8 to 21.6 µM |
| CN(C)Cc1ccc(S(=O)(=O)n2ccc(/C=C/C(=O)NO)c2)cc1 [Compound 10, (E)-3-[1-(4-Dimethylaminomethyl-benzenesulfonyl)-1H-pyrrol-3-yl]-N-hydroxy-acrylamide] | 2.15 to 51.3 µM | – | 0.07 to 5 µM |
| O=C(/C=C/c1ccn(S(=O)(=O)c2ccc(CNCc3cccnc3)cc2)c1)NO [Compound 11, (E)-N-Hydroxy-3-[1-(4-{[(pyridin-3-ylmethyl)-amino]-methyl}-benzenesulfonyl)-1H-pyrrol-3-yl]-acrylamide] | – | – | 0.07 to 5 µM |
| O=C(/C=C/c1ccn(S(=O)(=O)c2ccc(CNCc3c[nH]c4ccccc34)cc2)c1)NO [Compound 12, (E)-N-Hydroxy-3-[1-(4-{[(1H-indol-3-ylmethyl)-amino]-methyl}-benzenesulfonyl)-1H-pyrrol-3-yl]-acrylamide] | – | – | 0.07 to 5 µM |
| O=C(/C=C/c1ccn(S(=O)(=O)c2ccc(CNCc3ccccc3)cc2)c1)NO [Compound 13, (E)-3-{1-[4-(Benzylamino-methyl)-benzenesulfonyl]-1H-pyrrol-3-yl}-N-hydroxy-acrylamide] | – | – | 0.07 to 5 µM |
| CC(C)CNCc1ccc(S(=O)(=O)n2ccc(/C=C/C(=O)NO)c2)cc1 [Compound 14, (E)-N-Hydroxy-3-{1-[4-(isobutylamino-methyl)-benzenesulfonyl]-1H-pyrrol-3-yl}-acrylamide] | – | – | 0.07 to 5 µM |
| O=C(/C=C/c1ccn(S(=O)(=O)c2ccc(CNCc3ccc4[nH]ccc4c3)cc2)c1)NO [Compound 15, (E)-N-Hydroxy-3-[1-(4-{[(1H-indol-5-ylmethyl)-amino]-methyl}-benzenesulfonyl)-1H-pyrrol-3-yl]-acrylamide] | – | – | 0.07 to 5 µM |
| O=C(/C=C/c1ccn(S(=O)(=O)c2ccc(CNCc3ccncc3)cc2)c1)NO [Compound 16, (E)-N-Hydroxy-3-[1-(4-{[(pyridin-4-ylmethyl)-amino]-methyl}-benzenesulfonyl)-1H-pyrrol-3-yl]-acrylamide] | – | – | 0.07 to 5 µM |
| NCc1ccc(S(=O)(=O)n2ccc(/C=C/C(=O)NO)c2)cc1 [Compound 17, (E)-3-[1-(4-Aminomethyl-benzenesulfonyl)-1H-pyrrol-3-yl]-N-hydroxy-acrylamide] | – | 227 to 228.6 °C | 0.07 to 5 µM |
| O=C(/C=C/c1ccn(S(=O)(=O)c2ccc(-c3ccccn3)s2)c1)NO [Compound 24, (E)-N-Hydroxy-3-[1-(5-pyridin-2-yl-thiophene-2-sulfonyl)-1H-pyrrol-3-yl]-acrylamide] | – | – | 0.07 to 5 µM |
| Nc1ccccc1NC(=O)/C=C/c1ccn(S(=O)(=O)c2ccc(-c3ccccn3)s2)c1 [Compound 26, (E)-N-(2-Amino-phenyl)-3-[1-(5-pyridin-2-yl-thiophene-2-sulfonyl)-1H-pyrrol-3-yl]-acrylamide] | – | – | 0.07 to 5 µM |
| O=C(/C=C/c1ccn(S(=O)(=O)c2ccc(CN(CCO)CCc3cc4ccccc4[nH]3)cc2)c1)NO [Compound 28, (E)-N-Hydroxy-3-{1-[4-({(2-hydroxy-ethyl)-[2-(1H-indol-2-yl)-ethyl]-amino}-methyl)-benzenesulfonyl]-1H-pyrrol-3-yl}-acrylamide] | – | – | 0.07 to 5 µM |
